From patent publication US5164367A, “Method of using copper(II) containing compounds to accelerate wound healing” (ProCyte Corporation, priority 1990, dated 1992) come the findings set out here.

Assay [1] deals with wound chambers in healing impaired rats (granulation tissue formation). The assay can be described thus: Wound chamber model in cortisone acetate treated (healing impaired) rats, I.M. injection. Format: in vivo. As to the method:
(§1) The chambers were removed at day 15 and 29.
After implantation of the chambers, the rats were subsequently injected with Cortisone Acetate (10 mg I.M. daily, Cortone Acetate, Merck) to impair the healing response. After allowing for encapsulation of the chambers, the rats were injected I.M. (in the opposite leg from the cortisone injection) with 0.1 ml of either a saline solution containing 10 mg/ml of glycyl-L-histidyl-L-lysine:copper(II) (2:1 molar ratio) or saline.
After implantation of the chambers, the rats were subsequently injected with Cortisone Acetate (10 mg I.M. daily, Cortone Acetate, Merck) to impair the healing response. After allowing for encapsulation of the chambers, the rats were injected I.M. (in the opposite leg from the cortisone injection) with 0.1 ml of either a saline solution containing 19 mg/ml of glycyl-L-histidyl-L-lysyl-valyl-phenylalanly-valine:copper(II) or saline.
After implantation of the chambers, the rats were subsequently injected with Cortisone Acetate (10 mg I.M. daily, Cortone Acetate, Merck) to impair the healing response. After allowing for encapsulation of the chambers, the rats were injected I.M. (in the opposite leg from the cortisone injection) with 0.1 ml of the copper(II) compounds listed at the dosage specified in Table 4, or saline.

For assay [2], the system named is wound chambers in rats (granulation tissue formation). The assay can be described thus: Wound chamber model in rats, compounds injected directly into the wound chambers.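 Also: compounds given as 0.2 ml injections into encapsulated wound chambers in rats on set days, chambers removed at day 15 or 29, contents measured per chamber versus saline-injected chambers.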
The test system of assay [3] is 15 mm full-thickness excision wound in mice. The assay can be described thus: Full thickness defect model in mice, I.M. injection. Format: in vivo. An excerpt:
Following an acclimation period, mice are anesthetized with I.P. pentobarbital and prepped for surgery. The hair is plucked from a wide area of the mid-back. An ink stamp bearing a 15 mm diameter circle is used to mark the skin for subsequent full-thickness excision. Tissue is excised to the fascia underlying the paniculus carnosus muscle. Following excision, hemostasis is achieved through irrigation and the use of sterile gauze pads.
Mice received a first I.M. treatment of GHL-Cu following hemostasis, Day 0. Injections consisted of 0.1 mg of GHL-Cu in a volume of 0.1 ml. Mice used as controls received injections of saline. Injections were repeated on days 1, 2, 3, 6, 7, 8, 9, 10, and 13.
The residual wound surface area is measured on days 1, 7, 10 and 14. The final comparison is performed on Day 14. Table 5 below illustrates that I.M. injection of GHL-Cu resulted is an approximately 75% smaller residual wound size at 14 days.

Assay [4] deals with 2.0x2.0 cm full thickness skin defects in pigs. The assay can be described thus: Full thickness skin defects in pigs, I.M. injection, punch biopsy analysis. It is filed as in vivo, domestic pigs. The following applies: pig. As to the method:
The systemic application of GHL-Cu increases the formation of granulation tissue in pigs. Two domestic pigs approximately 29-31 pounds, about 8 weeks old, were anesthetized with Ketamine (30 mg/Kg) and Rompum (5 mg/Kg). A series of full thickness skin defects measuring 2.0×2.0 cm were created on the backs of each pig and bandaged with gauze and adhesive tape. One pig was treated with I.M. injections of strerile saline and the other with a solution of GHL-Cu (30 mg/ml). Each pig received 1.0 ml injections of either the saline or GHL-Cu solution on days 0, 1, 2, 5, 6, 7, 8, 9, 12, and 13.
Punch biopsy samples were taken from the centers of the healing wounds on day 7 and day 12 and analyzed for the biochemical parameters of granulation tissue and described in Example 10.

Assay [5] relates to wound chambers in normal rats (granulation tissue formation). Briefly: Subcutaneous stainless steel wound chamber model, I.M. injection, normal rats. It is filed as in vivo.
Source text: The subcutaneous implantation of stainless steel wound chambers in rats provides a model for the healing of open cavity wounds. This model in many ways mimics the early events in the formation of granulation tissue found in many types of wounds and surgical defects. Implantation of these chambers triggers a series of responses which reflect the series of phases involved in wound healing--fibrin clot formation, infiltration of white cells, collagen synthesis, and new blood vessel formation.
as §1
After allowing for encapsulation of the chambers, the rats were injected I.M. with 0.1 ml of either a saline solution containing 10 mg/ml glycyl-L-histidyl-L-lysine:copper(II) (2:1 molar ratio) or saline.

Where [6] appears, read: Table 8 part A, 2.0 mg/injection, saline control 4.5 ± 1.0.
[7] abbreviates: Table 8 part A, 2.0 mg/injection, saline control 49 ± 9.
Setting [8] is: Table 8 part A, 2.0 mg/injection, saline control 75 ± 11.
Setting [9] is: Table 8 part A, 2.0 mg/injection, saline control 703 ± 244.
The mark [10] stands for this setting: healing impaired (cortisone) rats, 0.3 mg/injection, saline control 502 ± 145.
Setting [11] is: cortisone treated rats, 0.1 ml of 10 mg/ml.

In assay [1] (healing impaired (cortisone) rats, 0.2 mg/injection, saline control 502 ± 145), `O=S(=O)([O-])[O-].[Cu+2]` [CuSO4, cupric sulfate] displayed a COLLAGEN of 976 ± 343 μg HP/chamber.

In assay [2] (setting [6]), “alanylL-histidyl-L-lysine:copper(II) [AHL:Cu]” displayed an ANGIOGENESIS of 10.2 ± 6.5 Units AP/chamber. The same compound had a PROTEIN in assay [2] (setting [7]) of 46 ± 14 mg/chamber. Further, the “WET WEIGHT” value in assay [2] (setting [8]) is listed as 74 ± 22 mg. In assay [2] (setting [9]), this compound returned a COLLAGEN of 1565 ± 520 μg HP/chamber.

Compound carnosine:copper(II) [CARN:Cu] yielded a COLLAGEN in assay [1] (setting [10]) of 832 ± 174 μg HP/chamber.

As to citrate:copper(II) [CITRATE:Cu], the COLLAGEN in assay [1] (healing impaired (cortisone) rats, 0.5 mg/injection, saline control 502 ± 145) was determined as 976 ± 343 μg HP/chamber.

Regarding “glycyl-L-histidyl-L-lysine:copper(II) [GHL:Cu]”, in assay [3] (0.1 mg in 0.1 ml per injection, saline control 1.78 ± 2.56), the “RESIDUAL WOUND SURFACE AREA DAY 14” value turned out to be 0.42 ± 0.60 SQ MM. In addition, the “smaller residual wound size at 14 days vs saline” value in assay [3] (0.1 mg per injection, day 14) was “approximately 75%”. Moreover, in assay [4] (30 mg/injection, punch biopsies (day 7 and day 12), saline control 121 ± 7), the “WET WEIGHT” value stood at 148 ± 11 mg. Besides, the ANGIOGENESIS in assay [4] (30 mg/injection, punch biopsies, saline control 0.4 ± 0.1) is recorded as 2.2 ± 1.2 Units AP/chamber; in assay [5] (1.0 mg/injection, saline control 2.2 ± 1.1), 3.0 ± 1.5 Units AP/chamber; in assay [1] (healing impaired (cortisone) rats, 1.0 mg/injection, saline control 0.5 ± 0.3), 1.5 ± 1.6 Units AP/chamber. The COLLAGEN in assay [4] (30 mg/injection, punch biopsies, saline control 628 ± 182) was 855 ± 20 μg HP/chamber; in assay [5] (1.0 mg/injection, saline control 376 ± 86) it was 1273 ± 711 μg HP/chamber; in assay [1] (healing impaired (cortisone) rats, 1.0 mg/injection, saline control 187 ± 101) it was 366 ± 74 μg HP/chamber. Further, in assay [4] (30 mg/injection, saline treated animal: level below the skin), the “visual examination of granulation tissue level” value is “raised above the level of the surrounding skin”. In assay [4] (1.0 ml of 30 mg/ml per injection), the “weight, collagen content, and angiogenesis in the biopsies” value is reported as “significant increase”. For the same compound, the PROTEIN in assay [5] (1.0 mg/injection, saline control 36 ± 13) amounted to 55 ± 19 mg/chamber; in assay [1] (healing impaired (cortisone) rats, 1.0 mg/injection, saline control 11 ± 8), 25 ± 9 mg/chamber. Besides, the “DRY WEIGHT” value worked out at 75 ± 25 mg in assay [5] (1.0 mg/injection, saline control 51 ± 15) and 35 ± 13 mg in assay [1] (healing impaired (cortisone) rats, 1.0 mg/injection, saline control 20 ± 12). Besides, in assay [5] (0.1 ml of 10 mg/ml), the “biochemical healing parameters (vs saline)” value is on record as “significantly increased”. The “healing response in healing impaired animals relative to normal animals” value in assay [1] (setting [11]) is on record as “increased the healing response in the healing impaired animals to the level found in the normal animals”. Also, in assay [1] (setting [11]), the “level of all the biochemical parameters examined compared to control animals” value is on record as “increased”.

“glycyl-L-histidyl-L-lysyl-L-valyl-L-phenylalanyl-L-valine:copper(II) [GHLVFV:Cu]” returned an ANGIOGENESIS in assay [1] (cortisone treated rats, 1.9 mg/injection, saline control 1.9 ± 0.4) of 6.9 ± 6.1 Units AP/chamber. The PROTEIN in assay [1] (cortisone treated rats, 1.9 mg/injection, saline control 32 ± 4) is given as 45 ± 15 mg/chamber. Also, the “DRY WEIGHT” value in assay [1] (cortisone treated rats, 1.9 mg/injection, saline control 65 ± 8) is 84 ± 28 mg. The compound further came in with a COLLAGEN in assay [1] (cortisone treated rats, 1.9 mg/injection, saline control 502 ± 145) of 1279 ± 1001 μg HP/chamber. The “level of all the biochemical parameters examined” value in assay [1] (cortisone treated rats, 0.1 ml of 19 mg/ml) is reported as “increased”.

“glycylL-(3-methyl)histidyl-L-lysine:copper(II) [G(3-Me)HL:Cu]” yielded an ANGIOGENESIS in assay [2] (setting [6]) of 8.9 ± 5.5 Units AP/chamber. This compound also returned a PROTEIN in assay [2] (setting [7]) of 75 ± 9 mg/chamber. The “WET WEIGHT” value in assay [2] (setting [8]) came to 125 ± 15 mg. The same compound displayed a COLLAGEN in assay [2] (setting [9]) of 1996 ± 288 μg HP/chamber.

For “glycylL-histidyl-L-lysine octyl amide:copper(II) [GHL-Octyl Amide:Cu]”, the ANGIOGENESIS in assay [2] (Table 7 part A, 2.6 mg/injection, saline control 5.3 ± 3.6) stood at 6.7 ± 1.3 Units AP/chamber. In addition, the PROTEIN in assay [2] (Table 7 part A, 2.6 mg/injection, saline control 47 ± 20) stood at 47 ± 6 mg/chamber. The “WET WEIGHT” value in assay [2] (Table 7 part A, 2.6 mg/injection, saline control 85 ± 30) is reported as 101 ± 8 mg. Further, the COLLAGEN in assay [2] (Table 7 part A, 2.6 mg/injection, saline control 335 ± 132) came out at 1339 ± 265 μg HP/chamber.

Turning to “glycylL-histidyl-L-lysine octyl ester:copper(II) [GHL-Octyl Ester:Cu]”, in assay [2] (Table 7 part B, 2.6 mg/injection, saline control 4.5 ± 1.0), the ANGIOGENESIS is given as 12.4 ± 3.6 Units AP/chamber. In addition, the PROTEIN in assay [2] (Table 7 part B, 2.6 mg/injection, saline control 49 ± 9) is recorded as 66 ± 8 mg/chamber. Also, the “WET WEIGHT” value in assay [2] (Table 7 part B, 2.6 mg/injection, saline control 75 ± 11) was 106 ± 8 mg. In assay [2] (Table 7 part B, 2.6 mg/injection, saline control 703 ± 244), this compound yielded a COLLAGEN of 1918 ± 565 μg HP/chamber.

“glycylL-histidyl-L-lysyl-L-tryptophan:copper(II) [GHLW:Cu]” showed an ANGIOGENESIS in assay [2] (Table 7 part A, 3.1 mg/injection, saline control 5.3 ± 3.6) of 7.7 ± 1.6 Units AP/chamber. Further, the “WET WEIGHT” value in assay [2] (Table 7 part A, 3.1 mg/injection, saline control 85 ± 30) is 94 ± 14 mg. The compound also yielded a COLLAGEN in assay [2] (Table 7 part A, 3.1 mg/injection, saline control 335 ± 132) of 1508 ± 128 μg HP/chamber.

“glycylL-histidyl-caprolactam:copper(II) [GHCap:Cu]” registered an ANGIOGENESIS in assay [2] (setting [6]) of 10.7 ± 3.1 Units AP/chamber. The compound also showed a PROTEIN in assay [2] (setting [7]) of 60 ± 11 mg/chamber. Besides, the “WET WEIGHT” value in assay [2] (setting [8]) worked out at 98 ± 13 mg. The compound further registered a COLLAGEN in assay [2] (setting [9]) of 1699 ± 365 μg HP/chamber.

“glycylglycyl-glycine:copper(II) [GGG:Cu]”: in assay [1] (setting [10]), the COLLAGEN is 829 ± 210 μg HP/chamber.

In assay [2] (setting [6]), “histidylglycyl-L-lysine:copper(II) [HGL:Cu]” yielded an ANGIOGENESIS of 10.4 ± 3.9 Units AP/chamber. This compound had a PROTEIN in assay [2] (setting [7]) of 58 ± 9 mg/chamber. Moreover, the “WET WEIGHT” value in assay [2] (setting [8]) amounted to 104 ± 13 mg. Further, the COLLAGEN in assay [2] (setting [9]) amounted to 2025 ± 456 μg HP/chamber.

In the case of “lysylL-histidyl-glycyl-L-valyl-L-phenylalanyl-L-valine:copper(II) [LHGVFV:Cu]”, the ANGIOGENESIS in assay [2] (Table 8 part B, 3.8 mg/injection, saline control 5.3 ± 3.6) is 8.0 ± 1.3 Units AP/chamber. The same compound had a PROTEIN in assay [2] (Table 8 part B, 3.8 mg/injection, saline control 47 ± 20) of 37 ± 9 mg/chamber. The “WET WEIGHT” value in assay [2] (Table 8 part B, 3.8 mg/injection, saline control 85 ± 30) is 95 ± 18 mg. Besides, the COLLAGEN in assay [2] (Table 8 part B, 3.8 mg/injection, saline control 335 ± 132) is 1630 ± 275 μg HP/chamber.
